Measured values from patent publication US20250064789A1, “KETOAMIDE DERIVATIVES AND PHARMACEUTICAL USES THEREOF” (priority 2022, published 2025).

Target: recombinant SARS-CoV-2 M^pro (Severe acute respiratory syndrome coronavirus 2 (2019-nCoV) (SARS-CoV-2), UniProt P0DTD1)
Experiment: Inhibition of SARS-CoV-2 M^pro enzyme activity (fluorescent substrate assay)
Format: biochemical
Details: inhibition of SARS-CoV-2 M^pro enzyme activity; values given in μM; read-out: IC50

SMILES | IC50 [µM]
O=C(NCc1cscn1)C(=O)[C@@H](Cc1ccccc1)NC(=O)[C@H]1CC(F)(F)CN1C(=O)C1CCCC(F)(F)C1 (stereo partly drawn) [Compound 434] | 2.05 ± 0.02
O=C(NCc1nccs1)C(=O)[C@@H](Cc1ccccc1)NC(=O)c1ccccc1 [Compound 454] | 1.3 ± 0.07
O=C(NCc1cccs1)C(=O)[C@@H](Cc1ccccc1)NC(=O)c1ccccc1 [Compound 455] | 77.3 ± 2.31
O=C(NCc1ccco1)C(=O)[C@@H](Cc1ccccc1)NC(=O)c1ccccc1 [Compound 456] | 37.2 ± 0.51
O=C(NCc1ncco1)C(=O)[C@@H](Cc1ccccc1)NC(=O)c1ccccc1 [Compound 457] | 51.5 ± 0.94
O=C(NCc1cocn1)C(=O)[C@@H](Cc1ccccc1)NC(=O)c1ccccc1 [Compound 458] | 11.4 ± 0.08
O=C(NCc1ccon1)C(=O)[C@@H](Cc1ccccc1)NC(=O)c1ccccc1 [Compound 459] | 54.74 ± 0.35
O=C(NCc1ncon1)C(=O)[C@@H](Cc1ccccc1)NC(=O)c1ccccc1 [Compound 460] | 53.1 ± 3.34
O=C(NCc1ncno1)C(=O)[C@@H](Cc1ccccc1)NC(=O)c1ccccc1 [Compound 461] | 62.3 ± 2.07
Cc1csc(CNC(=O)C(=O)[C@@H](Cc2ccccc2)NC(=O)c2ccccc2)n1 [Compound 462] | 40.7 ± 1.5
O=C(NCc1cnc(Cl)s1)C(=O)[C@@H](Cc1ccccc1)NC(=O)c1ccccc1 [Compound 463] | 95.2 ± 5.99
O=C(NCc1nccs1)C(=O)[C@@H](Cc1ccccc1F)NC(=O)c1ccccc1 [Compound 464] | 3.5 ± 0.23
O=C(NCc1nccs1)C(=O)[C@@H](Cc1cccc(F)c1)NC(=O)c1ccccc1 [Compound 465] | 2.55 ± 0.02
O=C(NCc1nccs1)C(=O)[C@@H](Cc1ccc(F)cc1)NC(=O)c1ccccc1 [Compound 466] | 1.95 ± 0.29
O=C(NCc1nccs1)C(=O)[C@@H](Cc1cc(F)c(F)cc1F)NC(=O)c1ccccc1 [Compound 467] | 3.37 ± 0.18
O=C(NCc1nccs1)C(=O)[C@@H](CC1CCCCC1)NC(=O)c1ccccc1 [Compound 468] | 10.5 ± 0.63
O=C(NCc1nccs1)C(=O)[C@@H](Cc1cccc(Cl)c1)NC(=O)c1ccccc1 [Compound 469] | 1.43 ± 0.15
O=C(NCc1nccs1)C(=O)[C@@H](Cc1ccc(Cl)c(Cl)c1)NC(=O)c1ccccc1 [Compound 470] | 2.03 ± 0.07
O=C(NCc1nccs1)C(=O)[C@@H](Cc1ccccc1)NC(=O)c1ccc(F)cc1 [Compound 473] | 1.31 ± 0.1
O=C(CCc1ccccc1)N[C@H](Cc1ccccc1)C(=O)C(=O)NCc1nccs1 [Compound 475] | 1.22 ± 0.1
O=C(CNC(=O)c1ccccc1)N[C@H](Cc1ccccc1)C(=O)C(=O)NCc1nccs1 [Compound 477] | 1.86 ± 0.04
O=C(CNC(=O)c1cnccn1)N[C@H](Cc1ccccc1)C(=O)C(=O)NCc1nccs1 [Compound 478] | 3.62 ± 0.27
O=C(CNC(=O)c1ccccn1)N[C@H](Cc1ccccc1)C(=O)C(=O)NCc1nccs1 [Compound 479] | 2.24 ± 0.1
O=C(CNC(=O)c1cccnc1)N[C@H](Cc1ccccc1)C(=O)C(=O)NCc1nccs1 [Compound 480] | 2.23 ± 0.37
O=C(NCc1nccs1)C(=O)[C@@H](Cc1ccccc1)NC(=O)c1cnn(Cc2cc(F)c(F)cc2F)c1 [Compound 490] | 5.21 ± 0.72
O=C(Cn1cc(-c2ccc(OC(F)(F)F)cc2)cn1)N[C@H](Cc1ccccc1)C(=O)C(=O)NCc1nccs1 [Compound 495] | 2.27 ± 0.09

Same assay, conditions: inhibition of SARS-CoV-2 M^pro enzyme activity; values in nM; read-out: IC50

SMILES | IC50 [µM]
O=C(CNC(=O)C1CCCCCC1)N[C@H](Cc1ccccc1)C(=O)C(=O)NCc1cscn1 [Compound 426] | 0.0094 ± 0.0001
O=C(CNC(=O)C1CC2CCC1C2)N[C@H](Cc1ccccc1)C(=O)C(=O)NCc1cscn1 (stereo partly drawn) [Compound 427] | 0.0209 ± 0.0004
O=C(CNC(=O)C1(F)CCCCC1)N[C@H](Cc1ccccc1)C(=O)C(=O)NCc1cscn1 [Compound 428] | 0.0171 ± 0.0001
O=C(CNC(=O)C1CCC(F)(F)C1)N[C@H](Cc1ccccc1)C(=O)C(=O)NCc1cscn1 (stereo partly drawn) [Compound 429] | 0.0338 ± 0.001
O=C(CNC(=O)C1CCCC(F)(F)C1)N[C@H](Cc1ccccc1)C(=O)C(=O)NCc1cscn1 (stereo partly drawn) [Compound 430] | 0.02 ± 0.0005
COC[C@@H](NC(=O)C1CCC(F)(F)CC1)C(=O)N[C@H](Cc1ccccc1)C(=O)C(=O)NCc1cscn1 [Compound 431] | 0.2337 ± 0.0018
COC[C@@H](NC(=O)CC1CCC(F)(F)CC1)C(=O)N[C@H](Cc1ccccc1)C(=O)C(=O)NCc1cscn1 [Compound 432] | 0.0115 ± 0.0001
O=C(NCc1cscn1)C(=O)[C@@H](Cc1ccccc1)NC(=O)[C@H]1CC(F)(F)CN1C(=O)C1CCC(F)(F)CC1 [Compound 433] | 0.7496 ± 0.0011
O=C(NCc1cscn1)C(=O)[C@@H](Cc1ccccc1)NC(=O)[C@H]1COCCN1C(=O)CC1CC1(F)F (stereo partly drawn) [Compound 435] | 0.0582 ± 0.0013
O=C(NCc1cscn1)C(=O)[C@@H](Cc1ccccc1)NC(=O)[C@H]1COCCN1C(=O)CC1CC(F)(F)C1 [Compound 436] | 0.171 ± 0.0024
O=C(NCc1cscn1)C(=O)[C@@H](Cc1ccccc1)NC(=O)[C@H]1COCCN1C(=O)C1CCC(F)(F)C1 (stereo partly drawn) [Compound 437] | 0.0611 ± 0.0012
O=C(NCc1cscn1)C(=O)[C@@H](Cc1ccccc1)NC(=O)[C@H]1COCCN1C(=O)C1CCC(F)(F)CC1 [Compound 438] | 0.0234 ± 0.0018
O=C(CNC(=O)c1ccc(Cl)cc1)N[C@H](Cc1ccccc1)C(=O)C(=O)NCc1ccccn1 [Compound 439] | 0.0462 ± 0.0003
O=C(CNC(=O)c1ccc(Cl)c(Cl)c1)N[C@H](Cc1ccccc1)C(=O)C(=O)NCc1ccccn1 [Compound 440] | 0.0204 ± 0.0004
O=C(CNC(=O)c1ccc(F)c(Cl)c1)N[C@H](Cc1ccccc1)C(=O)C(=O)NCc1ccccn1 [Compound 441] | 0.0185 ± 0.0003
N#Cc1cc(F)cc(C(=O)NCC(=O)N[C@H](Cc2ccccc2)C(=O)C(=O)NCc2ccccn2)c1 [Compound 442] | 0.0206 ± 0.001
N#Cc1ccc(C(=O)NCC(=O)N[C@H](Cc2ccccc2)C(=O)C(=O)NCc2ccccn2)cc1F [Compound 443] | 0.168 ± 0.0019
O=C(CNC(=O)c1cc2ccccc2o1)N[C@H](Cc1ccccc1)C(=O)C(=O)NCc1ccccn1 [Compound 444] | 0.2143 ± 0.0012
O=C(CNC(=O)C1CCCCC1)N[C@H](Cc1ccccc1)C(=O)C(=O)NCc1ccccn1 [Compound 445] | 0.0218 ± 0.0003
O=C(CNC(=O)C1CCOCC1)N[C@H](Cc1ccccc1)C(=O)C(=O)NCc1ccccn1 [Compound 446] | 0.4141 ± 0.0018
O=C(CNC(=O)C1CCC(F)(F)CC1)N[C@H](Cc1ccc(Cl)cc1)C(=O)C(=O)NCc1ccccn1 [Compound 447] | 0.1873 ± 0.0011
O=C(CNC(=O)C1CCC(F)(F)CC1)N[C@H](Cc1cccc(Cl)c1)C(=O)C(=O)NCc1ccccn1 [Compound 448] | 0.0599 ± 0.0005
O=C(CNC(=O)C1CCC(F)(F)CC1)N[C@H](Cc1ccccc1Cl)C(=O)C(=O)NCc1ccccn1 [Compound 449] | 0.0453 ± 0.0012

SMILES | IC50 [µM]
O=C(CNC(=O)C1CCC(F)(F)CC1)N[C@H](Cc1ccc(Cl)cc1Cl)C(=O)C(=O)NCc1ccccn1 [Compound 450] | 0.0454 ± 0.0002
O=C(CNC(=O)C1CCC(F)(F)CC1)N[C@H](Cc1ccc(Cl)cc1Cl)C(=O)C(=O)NCc1ccccn1 [Compound 451] | 0.0344 ± 0.0018
C[C@H](NC(=O)C1CCC(F)(F)CC1)C(=O)N[C@H](Cc1ccccc1)C(=O)C(=O)NCc1ccccn1 [Compound 452] | 0.0662 ± 0.0009
O=C(NCc1ccccn1)C(=O)[C@@H](Cc1ccccc1)NC(=O)[C@@H]1CC(F)(F)CN1C(=O)[C@@H]1C[C@@H]2[C@H](C1)C2(F)F [Compound 453] | 0.0372 ± 0.0002
O=C(NCc1nccs1)C(=O)[C@@H](Cc1ccccc1)NC(=O)c1ccccc1F [Compound 471] | 0.264 ± 0.004
O=C(NCc1nccs1)C(=O)[C@@H](Cc1ccccc1)NC(=O)c1cccc(F)c1 [Compound 472] | 0.478 ± 0.0048
O=C(Cc1ccccc1)N[C@H](Cc1ccccc1)C(=O)C(=O)NCc1nccs1 [Compound 474] | 0.949 ± 0.0399
O=C(COc1ccccc1)N[C@H](Cc1ccccc1)C(=O)C(=O)NCc1nccs1 [Compound 476] | 0.8808 ± 0.0012
O=C(CNC(=O)c1ccccc1F)N[C@H](Cc1ccccc1)C(=O)C(=O)NCc1nccs1 [Compound 481] | 0.9983 ± 0.0002
O=C(CNC(=O)c1cccc(F)c1)N[C@H](Cc1ccccc1)C(=O)C(=O)NCc1nccs1 [Compound 482] | 0.5382 ± 0.0043
O=C(CNC(=O)c1ccc(F)cc1)N[C@H](Cc1ccccc1)C(=O)C(=O)NCc1nccs1 [Compound 483] | 0.3384 ± 0.003
CC(C)(OCc1ccc(F)cc1)C(=O)N[C@H](Cc1ccccc1)C(=O)C(=O)NCc1nccs1 [Compound 484] | 0.0957 ± 0.0015
CC(C)(OCc1ccc(Cl)cc1)C(=O)N[C@H](Cc1ccccc1)C(=O)C(=O)NCc1nccs1 [Compound 485] | 0.0333 ± 0.0017
O=C(Cn1cc(-c2ccccc2)cn1)N[C@H](Cc1ccccc1)C(=O)C(=O)NCc1nccs1 [Compound 491] | 0.216 ± 0.0073
O=C(Cn1cc(-c2cccc(F)c2)cn1)N[C@H](Cc1ccccc1)C(=O)C(=O)NCc1nccs1 [Compound 492] | 0.0663 ± 0.0061
O=C(Cn1cc(-c2ccc(F)nc2)cn1)N[C@H](Cc1ccccc1)C(=O)C(=O)NCc1nccs1 [Compound 493] | 0.4515 ± 0.0023
O=C(Cn1cc(-c2cccc(OC(F)(F)F)c2)cn1)N[C@H](Cc1ccccc1)C(=O)C(=O)NCc1nccs1 [Compound 494] | 0.0825 ± 0.0037
N#Cc1cccc(-c2cnn(CC(=O)N[C@H](Cc3ccccc3)C(=O)C(=O)NCc3nccs3)c2)c1 [Compound 496] | 0.077 ± 0.0041
O=C(Cn1cc(-c2ccc(F)c(Cl)c2)cn1)N[C@H](Cc1ccccc1)C(=O)C(=O)NCc1nccs1 [Compound 497] | 0.036 ± 0.0024
O=C(Cn1cc(-c2ccc(F)c(C(F)(F)F)c2)cn1)N[C@H](Cc1ccccc1)C(=O)C(=O)NCc1nccs1 [Compound 498] | 0.103 ± 0.0053
Cc1nn(CC(=O)N[C@H](Cc2ccccc2)C(=O)C(=O)NCc2nccs2)c(C)c1-c1ccc(F)c(Cl)c1 [Compound 499] | 0.0329 ± 0.0015
O=C(Cn1cc(-c2ccc(F)c(Cl)c2)c(C(F)(F)F)n1)N[C@H](Cc1ccccc1)C(=O)C(=O)NCc1nccs1 [Compound 500] | 0.0389 ± 0.0005
O=C(Cn1cc(-c2cc(F)cc(F)c2)cn1)N[C@H](Cc1ccccc1)C(=O)C(=O)NCc1nccs1 [Compound 502] | 0.047 ± 0.0005
